Tests used:
[1] = molecular target: T1, human TREX2 (residues M44-A279) (Homo sapiens, UniProt Q9BQ50); test: TREX2 Biochemical Assay (fluorescence, dsDNA substrate degradation); details: 2.5 nM TREX2, 60 nM dsDNA substrate, 25 minutes at room temperature
T1 construct: human TREX2 (residues M44-A279, expressed in E. coli); His-TEV (His tag with TEV site) (N); made in house; host or cells: E. coli
T1 sequence (Q9BQ50 44-279 isoform Q9BQ50-1): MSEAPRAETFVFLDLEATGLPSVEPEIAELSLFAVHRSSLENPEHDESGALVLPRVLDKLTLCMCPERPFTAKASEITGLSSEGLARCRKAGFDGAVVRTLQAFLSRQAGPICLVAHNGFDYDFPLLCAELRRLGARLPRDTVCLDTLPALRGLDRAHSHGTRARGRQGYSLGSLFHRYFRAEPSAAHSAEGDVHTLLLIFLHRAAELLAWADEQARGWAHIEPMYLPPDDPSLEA
Experimental: Degradation of the dsDNA liberates free fluorophore to produce a fluorescent signal. Specifically, 7.5 μL of N-terminally His-Tev tagged human TREX2 (residues M44-A279, expressed in E. coli and purified in house) in reaction buffer (50 mM Tris (pH 7.4), 150 mM NaCl, 2 mM DTT, 0.1 mg/mL BSA, 0.01% (v/v) Tween-20 and 100 mM MgCl2) was added to a 384-well Black ProxiPlate Plus (Perkin Elmer) which already contained compound (150 nL) at varying concentrations as a 10 point dose-response in DMSO. To this was added 7.5 μL of dsDNA substrate (Strand A: 5′ TEX615/GCT AGG CAG 3′; Strand B: 5′ CTG CCT AGC/IAbRQSp (IDT)) in reaction buffer. Final concentrations were 2.5 nM TREX2, 60 nM dsDNA substrate in reaction buffer with 1.0% DMSO (v/v). After 25 minutes at room temperature, reactions were quenched by the addition of 5 μL of stop buffer (same as reaction buffer plus 200 mM EDTA). Final concentrations in the quenched reaction mixture were […] TREX2, 45 nM DNA and 50 mM EDTA in a volume of 20 μL. After a 5-minute incubation at room temperature, plates were read in a laser sourced Envision (Perkin-Elmer), measuring fluorescence at 615 nm following excitation w/570 nm light. IC50 values were calculated by comparing the measured fluorescence at 615 nm ratio relative to control wells pre-quenched w/stop buffer (100% inhibition) and no inhibitor (0% inhibition) controls as using non-linear least square four parameter fits and either Genedata or GraphPad Prism (GraphPad Software, Inc.).

[2] = molecular target: T2, full length human TREX1 (Homo sapiens, UniProt Q9NSU2); test: TREX1 Biochemical Assay (fluorescence, dsDNA substrate degradation); details: 150 pM TREX1, 60 nM dsDNA substrate, 25 minutes at room temperature
T2 construct: N-terminally His-Tev tagged full length human TREX1; His-TEV (His tag with TEV site) (N); made in house; host or cells: E. coli
T2 sequence (Q9NSU2 1-314): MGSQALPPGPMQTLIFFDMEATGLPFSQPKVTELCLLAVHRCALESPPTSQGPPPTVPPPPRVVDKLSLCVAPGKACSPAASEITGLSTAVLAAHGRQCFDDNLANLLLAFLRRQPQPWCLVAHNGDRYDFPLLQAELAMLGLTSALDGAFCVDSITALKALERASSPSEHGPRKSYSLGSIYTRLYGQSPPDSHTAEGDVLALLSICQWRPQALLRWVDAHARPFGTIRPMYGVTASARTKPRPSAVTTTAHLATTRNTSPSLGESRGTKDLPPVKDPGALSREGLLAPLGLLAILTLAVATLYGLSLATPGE
Experimental: Degradation of the dsDNA liberates free fluorophore to produce a fluorescent signal. Specifically, 7.5 μL of N-terminally His-Tev tagged full length human TREX1 (expressed in E. coli and purified in house) in reaction buffer (50 mM Tris (pH 7.4), 150 mM NaCl, 2 mM DTT, 0.1 mg/mL BSA, 0.01% (v/v) Tween-20 and 100 mM MgCl2) was added to a 384-well Black ProxiPlate Plus (Perkin Elmer) which already contained compound (150 nL) at varying concentrations as a 10 point dose-response in DMSO. To this was added 7.5 μL of dsDNA substrate (Strand A: 5′ TEX615/GCT AGG CAG 3′; Strand B: 5′ CTG CCT AGC/IAbRQSp (Integrated DNA Technologies)) in reaction buffer. Final concentrations were 150 pM TREX1, 60 nM dsDNA substrate in reaction buffer with 1.0% DMSO (v/v). After 25 minutes at room temperature, reactions were quenched by the addition of 5 μL of stop buffer (same as reaction buffer plus 200 mM EDTA). Final concentrations in the quenched reaction were 112.5 pM TREX1, 45 nM DNA and 50 mM EDTA in a volume of 20 μL. After a 5-minute incubation at room temperature, plates were read in a laser sourced Envision (Perkin-Elmer), measuring fluorescence at 615 nm following excitation w/570 nm light. IC50 values were calculated by comparing the measured fluorescence at 615 nm ratio relative to control wells pre-quenched w/stop buffer (100% inhibition) and no inhibitor (0% inhibition) controls as using non-linear least square four parameter fits and either Genedata or GraphPad Prism (GraphPad Software, Inc.).

[3] = system: HCT116 dual cells; test: HCT116 Cell Assay (Lucia luciferase reporter of Type I interferon induction); assay type: cell-based, human; details: pBR322/BstNI DNA transfection, Lucia luciferase at 48 h, relative to 10 uM compound 39
From the text: HCT116 dual cells (Invivogen, San Diego, Calif., USA) are derived from the human HCT116 colorectal carcinoma cell line. Cells have been selected for the stable integration of SEAP and Luciferase reporter genes, which expression is under the control of 5 tandem response elements for NF-KB/AP1 and STAT1/STAT2, respectively. The cell line was used to monitor Type I interferon induction and subsequent signaling by measuring the activity of the Lucia luciferase secreted in the culture medium.
HCT116 cells were plated in 96-well plate(s) at 40,000 cells/well in 100 uL DMEM supplemented with 10% FBS and 25 mM Hepes (pH 7.2-7.5). After overnight settling, cells were treated with TREX1i for 4 h (maximum DMSO fraction was 0.1%) before 1.25 ug/mL pBR322/BstNI restriction digest (New England Biolabs, Ipswich, Mass., USA) was transfected with Lipofectamine LTX (ThermoFisher, Grand Island, N.Y., USA), according to product manual recommendations. Briefly, Lipofectamine LTX (0.4 uL/well) was diluted in OptiMEM (5 uL/well). pBR322/BstNI (100 ng/well) was diluted in OptiMEM (5 uL/well) before Plus reagent (0.1 uL/100 ng DNA) was added. After 5 min incubation at room temperature, the DNA mixture was mixed dropwise with the diluted Lipofectamine LTX. After an additional 10 min incubation, the transfection mix (10 uL/well) was added to the cells. Cells were maintained at 37° C. for 48 h before monitoring the Lucia Luciferase activity from the cell culture medium. EC50 values were calculated by comparing the measured luminescence relative to 10 uM compound 39 (100% inhibition) and no inhibitor (0% inhibition) controls using non-linear least-squares four parameter fits in either Genedata Screener or GraphPad Prism (GraphPad Software, Inc.).

[4] = Homo sapiens, HCT-116, 4 h pre-treatment

| IC50 [1] | IC50 [2] | EC50 ([3]; 4 h pre-treatment) | EC50 [3, 4] | Compound |
| --- | --- | --- | --- | --- |
| 1000 to 10000 nM | < 100 nM | – | 10000 to 100000 nM | Cc1nn(C)cc1-c1cnc(CN(C)c2nc(C(=O)Nc3cnoc3)c(O)c(=O)n2C)cn1 [Example 80] |
| 1000 to 10000 nM | < 100 nM | – | 1000 to 10000 nM | CN(c1nc(C(=O)Nc2cnoc2)c(O)c(=O)n1C)C(c1ccccn1)c1c(Cl)cccc1Cl (single isomer, unassigned) [Example 60] |
| < 1000 nM | < 100 nM | 1000 to 10000 nM | – | CN(c1nc(C(=O)Nc2cnoc2)c(O)c(=O)n1C)C(c1cccc(C#N)c1)c1ccccc1Cl (single isomer, unassigned) [Example 96] |
| < 1000 nM | < 100 nM | – | < 1000 nM | CN(c1nc(C(=O)Nc2cnoc2)c(O)c(=O)n1C)C(c1ccccc1)c1ccccn1 (single isomer, unassigned) [Example 41] |
| 1000 to 10000 nM | < 100 nM | – | 10000 to 100000 nM | CN(Cc1ccccc1-c1cnn(C)c1)c1nc(C(=O)Nc2cnoc2)c(O)c(=O)n1C [Example 78] |
| < 1000 nM | < 100 nM | < 1000 nM | – | Cc1ccc(C(c2ccccc2)N(C)c2nc(C(=O)Nc3cnoc3)c(O)c(=O)n2C)cn1 (single isomer, unassigned) [Example 44] |
| 1000 to 10000 nM | < 100 nM | – | 1000 to 10000 nM | CN(Cc1ccccc1C(F)(F)F)c1nc(C(=O)Nc2cnoc2)c(O)c(=O)n1C [Example 11] |
| 1000 to 10000 nM | < 100 nM | – | 1000 to 10000 nM | CN(c1nc(C(=O)Nc2cnoc2)c(O)c(=O)n1C)C(c1ccccc1)C1CCOCC1 (single isomer, unassigned) [Example 45] |
| < 1000 nM | < 100 nM | – | 1000 to 10000 nM | CCN(c1nc(C(=O)Nc2cnoc2)c(O)c(=O)n1C)C(c1ccccc1)c1ccccc1Cl (single isomer, unassigned) [Example 91] |
| 1000 to 10000 nM | < 100 nM | – | 10000 to 100000 nM | Cc1nn(C)cc1-c1cncc(CN(C)c2nc(C(=O)Nc3cnoc3)c(O)c(=O)n2C)n1 [Example 79] |
| < 1000 nM | < 100 nM | – | 1000 to 10000 nM | C[C@H](c1ccccc1)N(C)c1nc(C(=O)Nc2cnoc2)c(O)c(=O)n1C [Example 27] |
| 1000 to 10000 nM | < 100 nM | – | 10000 to 100000 nM | CN(Cc1ccc(-c2cnn(C)c2)cc1)c1nc(C(=O)Nc2cnoc2)c(O)c(=O)n1C [Example 25] |
| 1000 to 10000 nM | < 100 nM | – | 10000 to 100000 nM | Cc1c(-c2ccncc2CN(C)c2nc(C(=O)Nc3cnoc3)c(O)c(=O)n2C)cnn1C [Example 35] |
| < 1000 nM | < 100 nM | – | < 1000 nM | CN(c1nc(C(=O)Nc2cnoc2)c(O)c(=O)n1C)C(c1ccccn1)c1ccccc1Cl (single isomer, unassigned) [Example 56] |
| < 1000 nM | < 100 nM | < 1000 nM | – | CN(c1nc(C(=O)Nc2cnoc2)c(O)c(=O)n1C)C(c1ccccc1Cl)C1CC1 (single isomer, unassigned) [Example 69] |
| 1000 to 10000 nM | < 100 nM | – | 1000 to 10000 nM | CN(Cc1ccc(Cl)cc1Cl)c1nc(C(=O)Nc2cnoc2)c(O)c(=O)n1C [Example 6] |
| < 1000 nM | < 100 nM | – | < 1000 nM | Cc1ncc(C(c2ccccc2Cl)N(C)c2nc(C(=O)Nc3cnoc3)c(O)c(=O)n2C)cn1 (single isomer, unassigned) [Example 81] |
| 1000 to 10000 nM | < 100 nM | 1000 to 10000 nM | – | CN(c1nc(C(=O)Nc2cnoc2)c(O)c(=O)n1C)C(c1ccccc1)C1CCOCC1 (single isomer, unassigned) [Example 46] |
| < 1000 nM | < 100 nM | < 1000 nM | – | Cc1cccnc1C(c1ccccc1)N(C)c1nc(C(=O)Nc2cnoc2)c(O)c(=O)n1C (single isomer, unassigned) [Example 59] |
| 1000 to 10000 nM | < 100 nM | – | 1000 to 10000 nM | CN(Cc1ccc(Cl)c(Cl)c1)c1nc(C(=O)Nc2cnoc2)c(O)c(=O)n1C [Example 7] |
| < 1000 nM | < 100 nM | < 1000 nM | – | CN(c1nc(C(=O)Nc2cnoc2)c(O)c(=O)n1C)C(c1ccccn1)c1c(Cl)cccc1Cl (single isomer, unassigned) [Example 61] |
| < 1000 nM | < 100 nM | – | < 1000 nM | CN(c1nc(C(=O)Nc2cnoc2)c(O)c(=O)n1C)C(c1ccccc1)c1cc(F)ccc1Cl (single isomer, unassigned) [Example 87] |
| < 1000 nM | < 100 nM | – | 10000 to 100000 nM | Cn1c(N(CCOc2ccccc2)Cc2ccccc2)nc(C(=O)Nc2cnoc2)c(O)c1=O [Example 16] |
| 1000 to 10000 nM | < 100 nM | – | 1000 to 10000 nM | CN(C)C(=O)c1ccc(C(c2ccccc2)N(C)c2nc(C(=O)Nc3cnoc3)c(O)c(=O)n2C)c(Cl)c1 (single isomer, unassigned) [Example 93] |

| Compound | IC50 [1] | IC50 [2] | EC50 ([3]; 4 h pre-treatment) | EC50 [3, 4] |
| --- | --- | --- | --- | --- |
| 2-(dibenzylamino)-5-ethoxy-N-(isoxazol-4-yl)-1-methyl-6-oxo-1,6-dihydropyrimidine-4-carboxamide [Example 1] | < 1000 nM | < 100 nM | 1000 to 10000 nM | – |

Reference: patent US20220289728A1, “MODULATORS OF TREX1” (Constellation Pharmaceuticals, Inc., priority 2019, published 2022)
